Earlier results on two molecules are cited in US8318203B2, “Form of administration of racecadotril” (Bioprojet, priority 2006, dated 2012).

The structures appear in SMILES notation.

The conditions of data set [1]: racecadotrilate, active metabolite of the pro-drug racecadotril.

As to `CC(=O)SCC(Cc1ccccc1)C(=O)NCC(=O)OCc1ccccc1` (racemic) [racecadotril, benzyl (RS)-2-[[2-[(acetylsulphanyl)methyl]-3-phenylpropanoyl]amino]acetate], the solubility in water entry is given as “insoluble in water”.
As to `O=C(O)CNC(=O)C(CS)Cc1ccccc1` (racemic) [racecadotrilate], the half-life entry in data set [1] is recorded as “three to four”.
